Test results: US6399764B1, “DNA molecule encoding for cellular uptake of mycobacterium tuberculosis and uses thereof” (priority 1997, dated 2002)
Entries after “also recorded” stand apart in the source; their conditions may differ.

Tested on: HeLa cells
Assay: Inhibition of rMcep1-coated fluorescent latex microsphere uptake
Format: cell-based

C=C1[C@@H](C)[C@H]2[C@H](Cc3ccccc3)NC(=O)[C@]23[C@H](OC(C)=O)/C=C/[C@@](C)(O)C(=O)[C@@H](C)C/C=C/[C@H]3[C@@H]1O [Cytochalasin D]
inhibition of association/uptake of rMcep1-coated fluorescent beads (cytochalasin D 0.1-5 mg/ml, 1 h preincubation at 37° C., FIG. 5D): blocked the association of the protein-coated beads in a dose-dependent manner | inhibition of association/uptake of rMcep1-coated fluorescent beads (cytochalasin D 0.1-5 mg/ml, 1 h preincubation at 37° C., FIG. 5D, listed as cytochalasin D): blocked uptake of the fluorescent beads, but the inhibition was not complete

CN(C)c1cccc2c(S(=O)(=O)NCCCCCN)cccc12 [MDC, Monodansylcadaverine]
inhibition of association/uptake of rMcep1-coated fluorescent beads (MDC 1-100 mm, 3 h preincubation at 37° C., FIG. 5F): partly inhibited the association | inhibition of association/uptake of rMcep1-coated fluorescent beads (MDC 1-100 mm, 3 h preincubation at 37° C., FIG. 5F, listed as Monodansylcadaverine (MDC)): partly inhibited the bead uptake

COC(=O)Nc1nc2ccc(C(=O)c3cccs3)cc2[nH]1 [Nocodazole]
inhibition of association/uptake of rMcep1-coated fluorescent beads (nocodazole up to 5 mg/ml, 1 hr preincubation at 4° C. then 5 hrs at 37° C., FIG. 5E): inhibited the association of the beads in a dose dependent fashion; also recorded: had a similar inhibitory effect at noncytotoxic concentrations
